Assays:
G1 APOL1 = biological target: T1, G1 APOL1 (Homo sapiens, UniProt O14791, I384M/S342G); assay: Acute APOL1 Thallium Assay with Inducible Stable Clones of HEK 293 Cells; format: cell-based; conditions: HEK 293 inducible stable clones, G1 APOL1; read-out: Thallium Assay (IC50)
T1 construct: expressed in transfected cells
T1 sequence (O14791 28-398 S342G/I384M): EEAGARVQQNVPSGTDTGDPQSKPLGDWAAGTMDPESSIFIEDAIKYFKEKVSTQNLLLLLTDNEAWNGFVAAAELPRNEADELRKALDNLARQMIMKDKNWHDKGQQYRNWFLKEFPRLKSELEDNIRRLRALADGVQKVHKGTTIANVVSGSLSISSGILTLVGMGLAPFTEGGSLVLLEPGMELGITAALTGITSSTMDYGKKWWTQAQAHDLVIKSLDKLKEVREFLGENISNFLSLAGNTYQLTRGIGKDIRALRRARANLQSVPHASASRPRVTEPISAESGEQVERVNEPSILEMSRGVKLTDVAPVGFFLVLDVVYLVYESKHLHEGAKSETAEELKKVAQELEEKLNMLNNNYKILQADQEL
In short: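 Pore activity was read as the fluorescence increase from Tl+ entering cells loaded with an AM-ester thallium indicator dye. The cells were tetracycline-inducible HEK293 T-Rex expressing G1 APOL1 (clone DC3.25), induced when plated at 26000 per well and incubated at 37° C.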

APOL1 G1 Protein = biological target: T2, APOL1 G1 Protein (Homo sapiens, UniProt O14791, I384M/S342G); assay: Trypanosoma brucei brucei Lysis Assay Using APOL1 Recombinant Protein (AlamarBlue viability); format: cell-based; conditions: read-out: Trypanosomal Assay (IC50)
T2 sequence (O14791 28-398 S342G/I384M): T1 sequence (O14791 28-398 S342G/I384M)
Text: Trypanosoma brucei brucei is a blood stream parasite to which human, gorillas and baboon are immune due to the presence of the APOL1 protein in their HDL particles. The protein is uptaken by the parasite via the TbHpHb receptor located in its flagellar pocket and is bonded by the Hpr protein contained in the HDL particles which triggers the receptor endocytosis by the parasite.
Following endocytosis, the formed vesicle containing the HDL particle matures from early to late endosome, and subsequently to lysosome. The concomitant pH change in the lumen of the vesicle triggers the insertion of the APOL1 protein into the membrane of the late endosome/lysosome and hereby triggers lysosomal membrane permeabilization and as a further downstream event, trypanosome lysis. Trypanosoma brucei brucei is sensitive to lysis by all three APOL1 variants (G0, G1, and G2).
The Trypanosoma brucei brucei lysis assay is a lysis assay of the parasite using recombinant APOL1 protein variant followed by a fluorescent detection method of viability by the addition of AlamarBlue reagent to the assay well, a general metabolic redox indicator (AlamarBlue assay).
Briefly, the AlamarBlue active compound, the resazurin, a blue, water soluble, non-toxic and cell permeable molecule, which can be followed by absorbance, is reduced by various metabolic pathways into resorufin, a red compound which can be followed by either absorbance or fluorescence. The assay allows the calculation of the percent viability (percent of living Trypanosomes remaining in each well) at the end of a lysis relative to the untreated condition by interpolation of fluorescent values (FLU) on a standard curve with a known amount of seeded trypanosome/well.
Trypanosoma brucei brucei (ATCC, Cat. No. PRA-382) • Lister 427 VSG 221 bloodstream form.
Thaw/Expansion Media (ATCC Medium 2834 Modified HMI-9 Medium)
Assay Media (No Phenol Red/No FBS): Make on Day of Use
Hypoxanthine Stock (100×)-9 (10×)
Equipment • E1-Clip Tip pipette 12 channel adjustable 2-125 μL, Cat. No. 4672070BT • ThermoFisher MultiDrop 384, Cat. No. 5840300 • Multidrop • Agilent Bravo, Cat. No. G5409A • Bravo • SpectraMax M5
Trypanosoma brucei brucei Culture
Step 2, Day 4 • Centrifuge at 800×g for 5 minutes at room temperature. • Resuspend in 1 mL media. • Make a 1:25 fold dilution (10 μL/240 μL media). • Count on a hemocytometer (after adding parasites). • Let sit for 1-2 minutes for the parasites to settle. • Count should be approximately 100 viable motile parasites/16 grid or approximately 25×10^6 parasites/flask. • Passage the parasites by adding 1×10^6 parasites/T75 flask in 20 mL media. • Passage the parasites by adding 2.33×10^6 parasites/T175 flask in 46.6 mL media. • For every T75 flask should make enough for approximately 1.5×384 well assay plates. • For every T175 flask should make enough for approximately 3.8×384 well assay plates.
Step 3, Day 6 • Centrifuge at 800×g for 5 minutes. • Resuspend in 3 mL assay media (No phenol red, no FBS) per 75 starting flask. • Resuspend in 7 mL assay media (No phenol red, no FBS) per 175 flask • Make a 1:25 fold dilution. • Count by hemocytometer. • Every T75 flask set up should have approximately 75×10^6 parasites/flask (verify doubling time=8.7 hours±1 hour). • Every T175 flask set up should have approximately 175×10^6 parasites/flask (verify doubling time=8.7 hours±1 hour). • Require 46×10^6 parasites per 384 well plate (at 120,000 parasites per well). […]

Compound	IC50 (G1 APOL1) [nM]	IC50 (APOL1 G1 Protein) [nM]
O=C(CCc1c(-c2ccc(F)cc2)[nH]c2ccc(F)cc12)N[C@H]1C[C@@H]1c1ccccc1 [Compound 23]	> 1000	> 1000
O=C(CCc1c(-c2ccc(F)cc2)[nH]c2c(F)cc(F)cc12)N1CC[C@@H]1CO [Compound 112]	> 1000	250 to 1000
Cn1ccnc1NC(=O)CCc1c(-c2ccc(F)cc2)[nH]c2c(F)cc(F)cc12 [Compound 108]	> 1000	> 1000
Cc1cccc(CNC(=O)CCc2c(-c3ccc(F)cc3)[nH]c3c(F)cc(F)cc23)n1 [Compound 183]	> 1000	> 1000
COCC(C)NC(=O)CCc1c(-c2ccc(F)cc2)[nH]c2ccc(F)cc12 (racemic) [Compound 30]	250 to 1000	250 to 1000
O=C(CCO)NCCc1c(-c2ccc(F)cc2)[nH]c2c(F)cc(F)cc12 [Compound 361]	250 to 1000	250 to 1000
CC(NC(=O)CCc1c(-c2ccc(F)cc2)[nH]c2c(F)cc(F)cc12)C(F)(F)F (racemic) [Compound 115]	250 to 1000	250 to 1000
O=C(CCc1c(-c2ccc(F)cc2)[nH]c2c(F)cc(F)cc12)NCc1ncc[nH]1 [Compound 134]	> 1000	> 1000
O=C(CCc1c(-c2ccc(F)cc2)[nH]c2c(F)cc(F)cc12)N[C@@H](CO)C(F)(F)F [Compound 121]	< 250	< 250
O=C(CCc1c(-c2ccc(F)cc2)[nH]c2c(F)cc(F)cc12)NC1(CO)CC(F)(F)C1 [Compound 122]	250 to 1000	> 1000
O=C(CCc1c(-c2ccc(F)cc2)[nH]c2ccc(F)cc12)NC1CC(F)(F)C1 [Compound 47]	250 to 1000	> 1000
O=C(CCc1c(-c2ccc(F)cc2)[nH]c2c(F)cc(F)cc12)NC1CCC1(F)F (stereo not drawn) [Compound 124]	250 to 1000	> 1000
O=C(CCc1c(-c2ccc(F)cc2)[nH]c2c(F)cc(F)cc12)NC(c1ccco1)C(F)(F)F (stereo not drawn) [Compound 157]	> 1000	> 1000
O=C(CCc1c(-c2ccc(F)cc2)[nH]c2c(F)cc(F)cc12)NC1CC1(F)F (stereo not drawn) [Compound 142]	> 1000	> 1000
O=C(CCc1c(-c2ccc(F)cc2)[nH]c2c(F)cc(F)cc12)N[C@H]1CC[C@@H](O)C1 [Compound 179]	> 1000	> 1000
O=C(CCc1c(-c2ccc(F)cc2)[nH]c2ccc(F)cc12)N[C@@H]1CCC[C@@H]1O [Compound 15]	250 to 1000	250 to 1000
O=C(CCc1c(-c2ccc(F)cc2)[nH]c2ccc(F)cc12)N1CCCC(O)C1 (stereo not drawn) [Compound 81]	> 1000	> 1000
Cc1csc(NC(=O)CCc2c(-c3ccc(F)cc3)[nH]c3c(F)cc(F)cc23)n1 [Compound 125]	> 1000	> 1000
O=C(CCc1c(-c2ccc(F)cc2)[nH]c2c(F)cc(F)cc12)N[C@H]1CCOC1=O [Compound 187]	< 250	< 250
O=C(CCc1c(-c2ccc(F)cc2)[nH]c2c(F)cc(F)cc12)NC(CCO)C(=O)O (stereo not drawn) [Compound 188]	< 250	250 to 1000
O=C(CCc1c(-c2ccc(F)cc2)[nH]c2c(F)cc(F)cc12)NCc1cocn1 [Compound 155]	> 1000	> 1000

Compound	IC50 (G1 APOL1) [nM]	IC50 (APOL1 G1 Protein) [nM]
C[C@H](CO)NC(=O)CCc1c(-c2ccc(F)cc2)[nH]c2c(F)cc(Br)cc12 [Compound 227, 3-[5-bromo-7-fluoro-2-(4-fluorophenyl)-1H-indol-3-yl]-N-[(1R)-2-hydroxy-1-methyl-ethyl]propanamide]	< 250	< 250
N#Cc1ccc(-c2[nH]c3c(F)cc(F)cc3c2CCC(=O)N[C@@H](CO)C(F)(F)F)cc1 [Compound 234, 3-[2-(4-cyanophenyl)-5,7-difluoro-1H-indol-3-yl]-N-[(1S)-2,2,2-trifluoro-1-(hydroxymethyl)ethyl]propanamide]	< 250	< 250
CN(CCNC(=O)OC(C)(C)C)C(=O)CCc1c(-c2ccc(F)cc2)[nH]c2ccc(F)cc12 [Compound 72]	> 1000	> 1000
O=C(CCc1c(-c2ccc(F)cc2)[nH]c2ccc(F)cc12)NCCO [Compound 25]	> 1000	> 1000
O=C(CCc1c(-c2ccc(F)cc2)[nH]c2ccc(F)cc12)Nc1cn[nH]c1 [Compound 46]	> 1000	> 1000
CC(C#N)(CO)NC(=O)CCc1c(-c2ccc(F)cc2)[nH]c2ccc(F)cc12 (racemic) [Compound 33]	> 1000	> 1000
O=C(CCc1c(-c2ccc(F)cc2)[nH]c2c(F)cc(F)cc12)NC1CCOC1 (stereo not drawn) [Compound 169]	> 1000	> 1000
O=C(CCc1c(-c2ccc(F)cc2)[nH]c2c(F)cc(F)cc12)NCc1cnn(C2CC(F)(F)C2)c1 [Compound 176]	> 1000	> 1000
C#CC(CO)CNC(=O)CCc1c(-c2ccc(F)cc2)[nH]c2c(F)cc(F)cc12 (stereo not drawn) [Compound 118]	250 to 1000	250 to 1000
C[C@@H](CO)NC(=O)NCCc1c(-c2ccc(F)cc2)[nH]c2c(F)cc(F)cc12 [Compound 283]	< 250	< 250
N#CC(CO)NC(=O)CCc1c(-c2ccc(F)cc2)[nH]c2c(F)cc(F)cc12 (stereo not drawn) [Compound 106]	< 250	250 to 1000
O=C(CCc1c(-c2ccc(F)cc2)[nH]c2ccc(F)cc12)NC1CONC1=O (stereo not drawn) [Compound 63]	> 1000	> 1000
O=C(CCc1c(-c2ccc(F)cc2)[nH]c2c(F)cc(F)cc12)NC1(CO)CCOC1 (stereo not drawn) [Compound 116]	> 1000	> 1000
CCC(C)(CO)NC(=O)CCc1c(-c2ccc(F)cc2)[nH]c2ccc(F)cc12 (racemic) [Compound 62]	> 1000	> 1000
C[C@@H](O)[C@H](CO)NC(=O)CCc1c(-c2ccc(F)cc2)[nH]c2ccc(F)cc12 [Compound 38]	250 to 1000	250 to 1000
O=C(CCc1c(-c2ccc(F)cc2)[nH]c2c(F)cc(F)cc12)NCc1cnn(CC(F)(F)F)c1 [Compound 186]	> 1000	> 1000
NC(=O)CNC(=O)CCc1c(-c2ccc(F)cc2)[nH]c2c(F)cc(F)cc12 [Compound 111]	> 1000	> 1000
CN(CC(N)=O)C(=O)CCc1c(-c2ccc(F)cc2)[nH]c2c(F)cc(F)cc12 [Compound 150]	> 1000	> 1000
O=C(CCc1c(-c2ccc(F)cc2)[nH]c2c(F)cc(F)cc12)Nc1ccno1 [Compound 184]	> 1000	> 1000
CC(C)(NC(=O)CCc1c(-c2ccc(F)cc2)[nH]c2ccc(F)cc12)C(N)=O [Compound 17]	250 to 1000	250 to 1000
O=C(CCc1c(-c2ccc(F)cc2)[nH]c2ccc(F)cc12)N[C@H](CO)C(F)(F)F [Compound 50]	> 1000	> 1000

Reference: US20230014907A1, “INHIBITORS OF APOL1 AND METHODS OF USING SAME” (Vertex Pharmaceuticals Incorporated, priority 2020, published 2023)
